Results from ChEMBL document CHEMBL1151722, “Sesquiterpenoids and phenylpropanoids from Chloranthus serratus” (2008).
Converted amounts (≈) assume the structure as drawn.

What follows are compounds tested on Helicobacter pylori (assay: Antimicrobial activity against Helicobacter pylori-SS1).
Format: functional

MIC [µg/mL] | SMILES
25 (≈ 102 µM) | C=C[C@]1(C)C(=O)c2occ(C)c2C(=O)[C@H]1C(=C)C [CHLORANTENE F]
25 (≈ 106 µM) | C=C1CCC[C@]2(C)CC[C@@](O)(C(C)C)C(=O)[C@@H]12 [CHLORANTENE G]
25 (≈ 96 µM) | CC1=C2C(=O)c3c(C)coc3C[C@@]2(C)[C@H](O)CC1=O [CHLORANTENE D]
25 (≈ 102 µM) | C=C1CC/C=C(\C)C(=O)c2occ(C)c2C(=O)C1 [CHLORANTENE E]
